SMILES strings stand for the structures.

The experiment has as its target T1, Human ENaC δ, β and γ subunit (Homo sapiens, UniProt P51168+P51170+P51172).
T1 construct: expressed in transfected cells; host or cells: Xenopus laevis (African clawed frog) oocytes injected with cRNA
T1 sequence (P51172 1-802): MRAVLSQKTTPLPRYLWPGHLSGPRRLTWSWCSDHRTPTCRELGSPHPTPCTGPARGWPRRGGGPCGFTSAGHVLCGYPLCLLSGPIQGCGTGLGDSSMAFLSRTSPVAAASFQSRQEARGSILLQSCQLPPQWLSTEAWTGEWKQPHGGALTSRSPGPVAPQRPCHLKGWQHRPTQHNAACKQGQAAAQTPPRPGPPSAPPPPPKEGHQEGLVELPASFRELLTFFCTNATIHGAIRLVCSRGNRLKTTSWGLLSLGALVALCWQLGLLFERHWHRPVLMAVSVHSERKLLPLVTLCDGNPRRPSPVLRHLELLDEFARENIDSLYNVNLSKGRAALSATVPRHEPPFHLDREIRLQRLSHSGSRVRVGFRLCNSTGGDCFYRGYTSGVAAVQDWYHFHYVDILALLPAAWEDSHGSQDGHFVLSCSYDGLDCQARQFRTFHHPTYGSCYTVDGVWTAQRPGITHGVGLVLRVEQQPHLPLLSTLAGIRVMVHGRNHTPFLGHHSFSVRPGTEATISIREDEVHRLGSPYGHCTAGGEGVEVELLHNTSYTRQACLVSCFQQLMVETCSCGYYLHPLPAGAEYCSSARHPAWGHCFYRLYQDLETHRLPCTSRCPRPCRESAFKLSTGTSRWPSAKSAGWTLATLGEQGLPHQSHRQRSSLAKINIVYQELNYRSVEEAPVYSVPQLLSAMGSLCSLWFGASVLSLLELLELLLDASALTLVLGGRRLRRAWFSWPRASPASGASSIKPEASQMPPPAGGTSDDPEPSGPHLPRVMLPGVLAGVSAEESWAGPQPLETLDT
T1 sequence (P51168 1-640): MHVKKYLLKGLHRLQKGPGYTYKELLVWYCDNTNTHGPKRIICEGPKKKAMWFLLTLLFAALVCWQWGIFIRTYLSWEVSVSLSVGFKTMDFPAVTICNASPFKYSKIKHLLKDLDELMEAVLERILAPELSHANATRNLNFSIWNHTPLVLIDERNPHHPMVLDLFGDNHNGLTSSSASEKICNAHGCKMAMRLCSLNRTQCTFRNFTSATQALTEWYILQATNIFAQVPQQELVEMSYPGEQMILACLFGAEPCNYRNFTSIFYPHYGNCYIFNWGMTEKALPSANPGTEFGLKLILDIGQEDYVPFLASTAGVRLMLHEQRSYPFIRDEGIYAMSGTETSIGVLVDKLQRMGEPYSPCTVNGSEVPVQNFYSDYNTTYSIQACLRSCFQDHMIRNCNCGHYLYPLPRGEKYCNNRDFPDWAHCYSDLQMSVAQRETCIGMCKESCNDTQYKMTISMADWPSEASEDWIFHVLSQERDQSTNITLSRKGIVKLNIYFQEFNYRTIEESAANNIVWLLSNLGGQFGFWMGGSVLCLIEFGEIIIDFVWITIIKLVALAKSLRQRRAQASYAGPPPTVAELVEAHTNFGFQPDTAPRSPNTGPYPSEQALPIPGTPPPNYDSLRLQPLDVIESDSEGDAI
T1 sequence (P51170 1-649): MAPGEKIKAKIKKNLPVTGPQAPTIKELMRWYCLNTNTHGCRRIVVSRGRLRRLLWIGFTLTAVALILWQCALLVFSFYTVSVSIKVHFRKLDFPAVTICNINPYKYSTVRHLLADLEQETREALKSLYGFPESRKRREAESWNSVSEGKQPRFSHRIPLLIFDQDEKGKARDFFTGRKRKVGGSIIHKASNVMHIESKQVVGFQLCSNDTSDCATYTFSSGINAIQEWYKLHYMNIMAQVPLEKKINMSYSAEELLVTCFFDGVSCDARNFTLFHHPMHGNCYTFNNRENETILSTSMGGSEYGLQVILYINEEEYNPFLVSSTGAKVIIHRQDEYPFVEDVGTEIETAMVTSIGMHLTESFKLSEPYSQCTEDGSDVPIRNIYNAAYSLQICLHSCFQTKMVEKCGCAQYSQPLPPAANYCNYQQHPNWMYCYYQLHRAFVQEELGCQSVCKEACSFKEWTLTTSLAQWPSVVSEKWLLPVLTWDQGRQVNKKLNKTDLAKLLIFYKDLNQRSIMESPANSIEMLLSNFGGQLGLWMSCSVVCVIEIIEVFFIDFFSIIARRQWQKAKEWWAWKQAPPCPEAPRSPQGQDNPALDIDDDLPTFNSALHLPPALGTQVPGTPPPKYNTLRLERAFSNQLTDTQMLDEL
Nature of the experiment: Measurement of ENaC activation potency (MED) in ENaC-expressing oocyte, Two Electrode Voltage Clamp. In kind it is cell-based. The settings on record: minimum effective dose at which current started to increase; ENaC-expressing African clawed frog oocyte; smaller MED = higher ENaC activation potency. In outline: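 Xenopus oocytes injected with human ENaC δ, β and γ cRNA, cultured 16–72 hr, voltage-clamped 30 mV below resting potential in ND96 (pH 7.6) by two-electrode voltage clamp. Compounds (0.1 nM–300 μM) perfused at rising concentrations every 3 min. MED = lowest dose raising current ≥10%, or raising 5 μM capsazepine-evoked current ≥25%, whichever smaller.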
(In general: Two-electrode voltage clamp holds a large cell at a set potential and records current.)
Molecule `C[C@@H](NC(=S)NCCc1ccccc1)c1ccccc1` [Example 11] displayed an MED of 0.3 µM. In the case of `OC[C@@H](NC(=S)NCCc1ccccc1)c1ccccc1` [Example 51] it was 0.3 µM; in that of `Oc1cc2c(cc1O)CN(C(=S)NCCc1ccc(Cl)cc1)CCC2` [capsazepine], 3 µM.
